Patent US12031989B2, “Preparing live microbial samples and microorganisms for subsequent mass spectrometric measurement and evaluation” (Bruker Daltonics GmbH & Co. KG, priority 2016, dated 2024)

Experiments:
[1] = system: Klebsiella pneumoniae meropenem-sensitive strain; assay: resistance/sensitivity test directly on MALDI-TOF MS sample support, meropenem-sensitive strain; format: cell-based
From the text: The antibiotic (for example an antibiotic solution in a liquid nutrient medium) can be mixed with a microorganism suspension either in a cultivation vessel or directly on a spot of a MALDI-TOF MS support 12 (hatched droplet 14*). In addition, this is generally accompanied by a growth control on a different section of the MALDI-TOF MS support, i.e. a cultivation of the microorganism suspension in a nutrient medium without the addition of an antibiotic (unhatched droplet 14). It is preferable for a very small quantity of the suspension to be applied to the spots; for example 1-10 microliters. The sensitivity test thus takes place in microdroplets 14, 14*, preferably with a volume of around 4-8 microliters. The use of even smaller volumes is also possible in principle, for example in the form of nanodroplets. […]
In the example shown, the MALDI-TOF MS support 12 with the test solution is subsequently cultured in a so-called “humidity chamber” 16 in an incubator at high humidity. […] A small quantity of liquid can be put in the humidity chamber 16, for example 0.1 to 5 milliliters of water or NaCl solution to humidify the atmosphere in the chamber 16 and thus set a high ambient humidity (nearly 100%) so that the evaporation of the droplets of nutrient medium 14, 14* themselves is prevented. […]

[2] = system: Klebsiella pneumoniae meropenem-resistant strain; assay: resistance/sensitivity test directly on MALDI-TOF MS sample support, meropenem-resistant strain; format: cell-based
From the text: The antibiotic (for example an antibiotic solution in a liquid nutrient medium) can be mixed with a microorganism suspension either in a cultivation vessel or directly on a spot of a MALDI-TOF MS support 12 (hatched droplet 14*). In addition, this is generally accompanied by a growth control on a different section of the MALDI-TOF MS support, i.e. a cultivation of the microorganism suspension in a nutrient medium without the addition of an antibiotic (unhatched droplet 14). It is preferable for a very small quantity of the suspension to be applied to the spots; for example 1-10 microliters. The sensitivity test thus takes place in microdroplets 14, 14*, preferably with a volume of around 4-8 microliters. The use of even smaller volumes is also possible in principle, for example in the form of nanodroplets. The initial microorganism concentration in the droplets 14, 14* can be slightly below the detection limit of a conventional MALDI time-of-flight mass spectrometer with linear flight path, and thus amount to around 5×10^5 cfu per milliliter, for example (cfu—colony forming unit). FIG. 3A.
In the example shown, the MALDI-TOF MS support 12 with the test solution is subsequently cultured in a so-called “humidity chamber” 16 in an incubator at high humidity. The purpose of the humidity chamber 16 is to prevent the droplets 14, 14* from evaporating prematurely during the incubation, and it can take the form of a box with a lid, made of plastic, for example, into which the MALDI-TOF MS support can easily be placed. […] A small quantity of liquid can be put in the humidity chamber 16, for example 0.1 to 5 milliliters of water or NaCl solution to humidify the atmosphere in the chamber 16 and thus set a high ambient humidity (nearly 100%) so that the evaporation of the droplets of nutrient medium 14, 14* themselves is prevented. FIG. 3B.
In the droplets 14, 14*, a high concentration of the microorganisms in a small volume of liquid is rapidly achieved during incubation (as long as the growth is not inhibited by antimicrobial substances). […]

[3] = 2 micrograms per milliliter, 6 microliter droplet, four hours incubation, MALDI Biotyper evaluation

C[C@@H](O)[C@H]1C(=O)N2C(C(=O)O)=C(S[C@@H]3CN[C@H](C(=O)N(C)C)C3)[C@H](C)[C@H]12 [meropenem]
bacterial growth in the presence of meropenem (specific mass signal signatures vs growth control) [1, 3]: cannot multiply (or scarcely) | relative growth ([1]; droplet sizes 2, 4, 6, 8 and 10 microliters, significant growth threshold 0.4, FIG. 4B): < 0.4 | bacterial growth in the presence of meropenem (specific mass signal signatures vs growth control) [2, 3]: not inhibited | relative growth, median ([2]; 4 microliter droplet, measurements occasionally below threshold, FIG. 4B): greater than 0.4 | relative growth ([2]; droplet sizes 2, 6, 8 and 10 microliters, significant growth threshold 0.4, FIG. 4B): greater than 0.4
